According to US20250084084A1, “Crystalline form of (2R)-2-(5-fluoro-2-methoxypyridin-4-yl)-1-[(2S)-7-methyl-6-(pyrimidin-2-yl)-3,4-dihydro-1H-spiro[1,8-naphthyridine-2,3-pyrrolidin]-1-yl]propan-1-one” (Pfizer Inc., priority 2020, published 2025):
Like-named read-outs stand apart in the source and are kept apart here.

Target: α-melanocyte-stimulating hormone receptor (hMC4R) (Homo sapiens (Human), UniProt P32245)
Assay: In vitro binding affinity assay using hMC4R (radioligand competition binding, [125I]-(Nle4, D-Phe7)-α-MSH)
Conditions: geometric mean
Experimental: The binding affinity of test compounds at the α-melanocyte-stimulating hormone receptor (hMC4R) was assessed using a radioligand competition binding assay. Recombinant Chinese hamster ovaries (CHO) cells stably expressing hMC4R (PerkinElmer #ES-191-C) were used for competitive binding. hMC4R membranes were grown in Dulbecco's Modified Essential Medium and Ham's F-12 Medium (DMEM/F12), 10% heat inactivated fetal bovine serum (FBS), 0.4 mg/mL Geneticin and 2 mM L-glutamine. Cell membranes were bulked and frozen until the assay was performed.
Compounds were solubilized in 100% dimethyl sulfoxide (DMSO) to a concentration of 30 mM. A 10-point intermediate dilution series using half log dilutions was created in 100% DMSO with a top concentration of 0.03 mM. The serially diluted compounds were spotted as 1 μL/well, in 96-well Costar 3363 plates. The final compound range in the assay was 300 nM to 0.01 nM with a final DMSO concentration of 1%. Control wells, containing 1 μL of 2 mM ([…]) alpha-melanocyte stimulating hormone (α-MSH-Tocris #2584) was added to the non-specific binding wells and 1 μL 100% DMSO for the total binding control wells. […] The exact concentration of radioligand used for each experiment was determined by liquid scintillation counting and adjusted if necessary.
Frozen hMC4R cell membranes were thawed and Dounce homogenized. Homogenates were resuspended in assay buffer to a concentration of 2 μg per well. […] The plates were incubated for 2 hours at room temperature. Assay samples were then rapidly filtered through Unifilter-96 GF/B PEI coated filter plates using a filter plate harvester (PerkinElmer) and rinsed with ice-cold wash buffer [25 mM (4-(2-hydroxyethyl)-1-piperazineethanesulfonic acid (HEPES), 1 mM MgCl2, 2.5 mM CaCl2, and 500 mM NaCl]. Filter plates were dried overnight at room temperature. Plates were then bottom-sealed prior to the addition of 50 μL/well Ultima Gold XR scintillation fluid (PerkinElmer 6013111). Plates were then top-sealed, incubated for 60 minutes at room temperature and then the amount of radioactivity present was determined by liquid scintillation counting on a Microbeta Trilux (PerkinElmer #2450-0060).
The raw data (expressed as counts per minute) were analyzed using ActivityBase (IDBS Data Management Software). […] Equilibrium dissociation constant for inhibitor of ligand and receptor interaction (Ki) values were then calculated from the IC50 values using the Cheng-Prusoff equation: Ki=IC50/(1+([L]/Kd)), where [L] is the concentration of the radioligand used in the experiment and Kd is the affinity of the radioligand (determined in separate saturation experiments).

[1] = read-out: Ki (nM) geometric mean

Chain of α-melanocyte-stimulating hormone receptor (hMC4R) (P32245 whole entry): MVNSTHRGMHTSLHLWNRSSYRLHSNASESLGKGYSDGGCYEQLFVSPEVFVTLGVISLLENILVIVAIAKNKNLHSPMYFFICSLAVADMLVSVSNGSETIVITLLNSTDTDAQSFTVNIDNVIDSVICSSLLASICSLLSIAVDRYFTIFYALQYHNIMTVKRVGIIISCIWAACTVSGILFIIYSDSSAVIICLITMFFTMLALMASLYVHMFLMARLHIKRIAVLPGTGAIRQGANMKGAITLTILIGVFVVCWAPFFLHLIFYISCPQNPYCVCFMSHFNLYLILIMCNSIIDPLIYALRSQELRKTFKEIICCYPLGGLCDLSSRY

How did the Ki (read-out: Ki (nM) geometric) turn out when COc1cc([C@@H](C)C(=O)N2CC[C@@]3(CCc4cc(-c5cc(C)ns5)c(C)nc4N3)C2)c(F)cn1 [Example 176, (2R)-2-(5-fluoro-2-methoxypyridin-4-yl)-1-[(2S)-7-methyl-6-(3-methyl-1,2-thiazol-5-yl)-3,4-dihydro-1H-spiro[1,8-naphthyridine-2,3′-pyrrolidin]-1′-yl]propan-1-one] was run?
Its Ki is 26 nM.

COc1cc([C@@H](C)C(=O)N2CC[C@@]3(CCc4cc(-c5csc(C6CC6)n5)c(C)nc4N3)C2)c(F)cn1 [Example 171, (2R)-1-[(2S)-6-(2-cyclopropyl-1,3-thiazol-4-yl)-7-methyl-3,4-dihydro-1H-spiro[1,8-naphthyridine-2,3′-pyrrolidin]-1′-yl]-2-(5-fluoro-2-methoxypyridin-4-yl)propan-1-one] was tested. Which Ki (read-out: Ki (nM) geometric) did it give?
The Ki was 3.6 nM.

With COc1cc([C@@H](C)C(=O)N2CC[C@@]3(CCc4ccc(C)nc4N3)C2)c(Cl)cn1 (single isomer, unassigned) [Example 100] as the compound, how does the Ki [1] read?
The Ki was 1.1 nM.

How did the Ki (read-out: Ki (nM) geometric) turn out when Cc1nc2c(cc1-c1ncccn1)CC[C@@]1(CCN(C(=O)C(C)c3ccc(F)cc3F)C1)N2 (single isomer, unassigned) [Example 190] was run?
The Ki was 2.3 nM.

With COc1cc([C@@H](C)C(=O)N2CC[C@@]3(CCc4cc(-c5ccc(C6CC6)nn5)c(C)nc4N3)C2)c(F)cn1 [Example 199, (2R)-1-[(2S)-6-(6-cyclopropylpyridazin-3-yl)-7-methyl-3,4-dihydro-1H-spiro[1,8-naphthyridine-2,3′-pyrrolidin]-1′-yl]-2-(5-fluoro-2-methoxypyridin-4-yl)propan-1-one] as the compound, how does the Ki (read-out: Ki (nM) geometric) read?
Its Ki is 15 nM.

Which Ki [1] does the source give for Cc1nc2c(cc1-c1nnn(C)n1)CC[C@@]1(CCN(C(=O)Cc3ccc(C(F)(F)F)cc3)C1)N2 (single isomer, unassigned) [Example 66, 1-[7-methyl-6-(2-methyl-2H-tetrazol-5-yl)-3,4-dihydro-1H-spiro[1,8-naphthyridine-2,3′-pyrrolidin]-1′-yl]-2-[4-(trifluoromethyl)phenyl]ethan-1-one] here?
The Ki was 250 nM.

COc1cc([C@@H](C)C(=O)N2CC[C@@]3(CCc4cc(-c5ccc(C6CC6)cn5)c(C)nc4N3)C2)c(F)cn1 [Example 186, (2R)-1-[(2S)-6-(5-cyclopropylpyridin-2-yl)-7-methyl-3,4-dihydro-1H-spiro[1,8-naphthyridine-2,3′-pyrrolidin]-1′-yl]-2-(5-fluoro-2-methoxypyridin-4-yl)propan-1-one] was tested. Which Ki (read-out: Ki (nM) geometric) did it give?
Its Ki is 19 nM.

With COc1cc([C@@H](C)C(=O)N2CC[C@@]3(CCc4cc(-c5nc(C(F)(F)F)n(C)n5)c(C)nc4N3)C2)c(F)cn1 (single isomer, unassigned) [Example 92] as the compound, how does the Ki [1] read?
The Ki was 0.45 nM.

With COc1cc([C@@H](C)C(=O)N2CC[C@@]3(CCc4cc(-c5cnc(C)cn5)c(C)nc4N3)C2)c(F)cn1 [Example 158, (2R)-2-(5-fluoro-2-methoxypyridin-4-yl)-1-[(2S)-7-methyl-6-(5-methylpyrazin-2-yl)-3,4-dihydro-1H-spiro[1,8-naphthyridine-2,3′-pyrrolidin]-1′-yl]propan-1-one] as the compound, how does the Ki (read-out: Ki (nM) geometric) read?
Its Ki is 3.2 nM.

COc1cc(OC)cc([C@@H](C)C(=O)N2CCC3(CCc4cc(-c5cnn(C)c5)c(C)nc4N3)C2)c1 (single isomer, unassigned) [Example 90] was tested. Which Ki [1] did it give?
Its Ki is 0.044 nM.

COc1cc([C@@H](C)C(=O)N2CC[C@@]3(CCc4cc(-c5ncc(C(F)(F)F)cn5)c(C)nc4N3)C2)c(F)cn1 [Example 145, (2R)-2-(5-fluoro-2-methoxypyridin-4-yl)-1-{(2S)-7-methyl-6-[5-(trifluoromethyl)pyrimidin-2-yl]-3,4-dihydro-1H-spiro[1,8-naphthyridine-2,3′-pyrrolidin]-1′-yl}propan-1-one] was tested. Which Ki (read-out: Ki (nM) geometric) did it give?
The Ki was 8.7 nM.

COc1cc([C@@H](C)C(=O)N2CC[C@@]3(CCc4cc(-c5nnc(N6CCCCC6)s5)c(C)nc4N3)C2)c(F)cn1 [Example 168, (2R)-2-(5-fluoro-2-methoxypyridin-4-yl)-1-{(2S)-7-methyl-6-[5-(piperidin-1-yl)-1,3,4-thiadiazol-2-yl]-3,4-dihydro-1H-spiro[1,8-naphthyridine-2,3′-pyrrolidin]-1′-yl}propan-1-one] was tested. Which Ki (read-out: Ki (nM) geometric) did it give?
The Ki was 86 nM.

With COc1cc([C@@H](C)C(=O)N2CC[C@@]3(CCc4cc(-c5cc(C)ccn5)c(C)nc4N3)C2)c(F)cn1 [Example 166, (2R)-2-(5-fluoro-2-methoxypyridin-4-yl)-1-[(2S)-7-methyl-6-(4-methylpyridin-2-yl)-3,4-dihydro-1H-spiro[1,8-naphthyridine-2,3′-pyrrolidin]-1′-yl]propan-1-one] as the compound, how does the Ki (read-out: Ki (nM) geometric) read?
The Ki was 8.2 nM.

For COc1cc([C@@H](C)C(=O)N2CC[C@@]3(CCc4cc(-c5ncc(F)cn5)c(C)nc4N3)C2)c(F)cn1 [Example 146, (2R)-2-(5-fluoro-2-methoxypyridin-4-yl)-1-[(2S)-6-(5-fluoropyrimidin-2-yl)-7-methyl-3,4-dihydro-1H-spiro[1,8-naphthyridine-2,3′-pyrrolidin]-1′-yl]propan-1-one], which Ki (read-out: Ki (nM) geometric) is on record?
Its Ki is 1.2 nM.

Which Ki [1] does the source give for COc1cc([C@@H](C)C(=O)N2CC[C@@]3(CCc4ccc(C)nc4N3)C2)nc(C)n1 (single isomer, unassigned) [Example 23, 2-(6-methoxy-2-methylpyrimidin-4-yl)-1-(7-methyl-3,4-dihydro-1H-spiro[1,8-naphthyridine-2,3′-pyrrolidin]-1′-yl)propan-1-one] here?
Its Ki is 21 nM.

With Cc1ccc2c(n1)N[C@@]1(CC2)CCN(C(=O)Cc2ccc(F)cc2)C1 (single isomer, unassigned) [Example 88, 2-(4-fluorophenyl)-1-(7-methyl-3,4-dihydro-1H-spiro[1,8-naphthyridine-2,3′-pyrrolidin]-1′-yl)ethan-1-one] as the compound, how does the Ki [1] read?
The Ki was > 2200 nM.

With COc1cc([C@@H](C)C(=O)N2CC[C@@]3(CCc4cc(-c5nc(C(F)(F)F)ccc5F)c(C)nc4N3)C2)c(F)cn1 [Example 69, (2R)-2-(5-fluoro-2-methoxypyridin-4-yl)-1-{(2S)-6-[3-fluoro-6-(trifluoromethyl)pyridin-2-yl]-7-methyl-3,4-dihydro-1H-spiro[1,8-naphthyridine-2,3′-pyrrolidin]-1′-yl}propan-1-one] as the compound, how does the Ki [1] read?
Its Ki is 5.1 nM.

With Cc1nc2c(cc1-c1ncccn1)CC[C@@]1(CCN(C(=O)[C@H](C)c3ccc(F)c(F)c3)C1)N2 (single isomer, unassigned) [Example 50] as the compound, how does the Ki [1] read?
The Ki was 0.81 nM.

For COc1cc([C@@H](C)C(=O)N2CC[C@@]3(CCc4cc(-c5nccc(C(F)(F)F)n5)c(C)nc4N3)C2)c(F)cn1 [Example 143, (2R)-2-(5-fluoro-2-methoxypyridin-4-yl)-1-{(2S)-7-methyl-6-[4-(trifluoromethyl)pyrimidin-2-yl]-3,4-dihydro-1H-spiro[1,8-naphthyridine-2,3′-pyrrolidin]-1′-yl}propan-1-one], which Ki (read-out: Ki (nM) geometric) is on record?
Its Ki is 1.3 nM.

For COc1cnc(-c2cc3c(nc2C)N[C@@]2(CC3)CCN(C(=O)[C@H](C)c3cc(OC)ncc3F)C2)nc1 [Example 67, (2R)-2-(5-fluoro-2-methoxypyridin-4-yl)-1-[(2S)-6-(5-methoxypyrimidin-2-yl)-7-methyl-3,4-dihydro-1H-spiro[1,8-naphthyridine-2,3′-pyrrolidin]-1′-yl]propan-1-one], which Ki [1] is on record?
Its Ki is 2.5 nM.

Which Ki (read-out: Ki (nM) geometric) does the source give for COc1cc([C@@H](C)C(=O)N2CC[C@@]3(CCc4cc(-c5ccc(C(F)(F)F)cn5)c(C)nc4N3)C2)c(F)cn1 [Example 155, (2R)-2-(5-fluoro-2-methoxypyridin-4-yl)-1-{(2S)-7-methyl-6-[5-(trifluoromethyl)pyridin-2-yl]-3,4-dihydro-1H-spiro[1,8-naphthyridine-2,3′-pyrrolidin]-1′-yl}propan-1-one] here?
The Ki was 27 nM.
